# Tests used:
# [1] = HPLC purity of bendamustine HCl after sterilization; format: physicochemical
# Method: (§1) 100 mg each of bendamustine HCl was weighed into a 20 mL tubing vial, a 20 mL amber vial, and a 20 mL clear vial. Rubber stoppers were inserted and aluminum caps crimped on. The vials were passed through a gamma irradiation line and received doses in the range of 29.3 kGy to about 32.3 kGy. Purity and sterility testing was then performed.
# as §1, with “an electron beam” for “a gamma”, “a dose” for “doses in the range”, “of” for “of 29.3 kGy to”, “30” for “32.3”
# To each 10 mg of bendamustine HCl, sterilized according to the methods described above, was added 10 mL N-methyl-2-pyrrolidone (NMP). A reference standard of bendamustine HCl was prepared in NMP having a concentration of 1 mg/mL. HPLC was performed according to conventional methods.
# [2] = heating; background statement; cited from earlier work
compound,measurement,setting,value
"Cl.Cn1c(CCCC(=O)O)nc2cc(N(CCCl)CCCl)ccc21 [bendamustine HCl, Bendamustine hydrochloride]",HPLC purity (% area),"[1]; after E-beam irradiation, about 30 kGy, 100 mg solid in amber vial",99.70 % area
same,HPLC purity (% area),"[1]; after E-beam irradiation, about 30 kGy, 100 mg solid in clear vial",99.70 % area
same,HPLC purity (% area),"[1]; after gamma irradiation, 29.3 kGy to about 32.3 kGy, 100 mg solid in amber vial",99.70 % area
same,HPLC purity (% area),"[1]; after gamma irradiation, 29.3 kGy to about 32.3 kGy, 100 mg solid in clear vial",99.64 % area
same,Temperature at which the solid chars when heated,[2],160 °C

# Reference: US20130144068A1, “Methods for the Sterilization of Bendamustine” (Cephalon, Inc., priority 2010, published 2013)
